Results as given in PubChem BioAssay AID248 (DTP/NCI, 2004).
Toxic doses and inconclusive results are not listed. No stated cut-off is given here; in the data, active means T/C of 150% or more; inactive means T/C below 125%.

System: L1210 leukemia ip in BDF1 mice, survival T/C
Assay: NCI In Vivo Anticancer Drug Screen. Data for tumor model L1210 Leukemia (intraperitoneal) in B6D2F1 (BDF1) mice
Details: endpoint: mean survival time, higher = longer survival
How it was run: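 Tumor was transplanted into mice, which were then dosed with test compound or vehicle alone. Survival was recorded for each group, and the treated figure was expressed relative to the control figure.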

[1] = dose: 100.0 mg/kg/injection, schedule: Q04DX002 (ip), vehicle: saline with Tween-80
[2] = dose: 200.0 mg/kg/injection, schedule: Q04DX002 (ip), vehicle: saline with Tween-80
[3] = dose: 400.0 mg/kg/injection, schedule: Q04DX002 (ip), vehicle: saline with Tween-80
[4] = dose: 100.0 mg/kg/injection, schedule: Q01DX009 (ip), vehicle: Klucel (hydroxypropylcellulose) (HPC)
[5] = dose: 200.0 mg/kg/injection, schedule: Q01DX009 (ip), vehicle: Klucel (hydroxypropylcellulose) (HPC)
[6] = dose: 400.0 mg/kg/injection, schedule: Q01DX009 (ip), vehicle: Klucel (hydroxypropylcellulose) (HPC)
[7] = dose: 100.0 mg/kg/injection, schedule: Q04DX003 (ip), vehicle: saline
[8] = dose: 200.0 mg/kg/injection, schedule: Q04DX003 (ip), vehicle: saline
[9] = dose: 400.0 mg/kg/injection, schedule: Q04DX003 (ip), vehicle: saline
[10] = dose: 100.0 mg/kg/injection, schedule: Q01DX001 (ip), vehicle: saline
[11] = dose: 200.0 mg/kg/injection, schedule: Q01DX001 (ip), vehicle: saline
[12] = dose: 400.0 mg/kg/injection, schedule: Q01DX001 (ip), vehicle: saline
[13] = dose: 100.0 mg/kg/injection, schedule: Q04DX003 (ip), vehicle: Klucel (hydroxypropylcellulose) (HPC)
[14] = dose: 200.0 mg/kg/injection, schedule: Q04DX003 (ip), vehicle: Klucel (hydroxypropylcellulose) (HPC)

Measured: T/C

CCOC(=O)c1cnc(SC)nc1Nc1c(Cl)cccc1Cl
inactive: dose: 100.0 mg/kg/injection, schedule: Q04DX003 (ip), vehicle: saline with Tween-80 96 % of control | dose: 200.0 mg/kg/injection, schedule: Q04DX003 (ip), vehicle: saline with Tween-80 94 % of control | dose: 400.0 mg/kg/injection, schedule: Q04DX003 (ip), vehicle: saline with Tween-80 94 % of control

O=C1c2cccc3c([N+](=O)[O-])ccc(c23)C(=O)N1NCCO
inactive: dose: 100.0 mg/kg/injection, schedule: Q04DX003 (ip), vehicle: carboxymethylcellulose (CMC) 102 % of control | dose: 200.0 mg/kg/injection, schedule: Q04DX003 (ip), vehicle: carboxymethylcellulose (CMC) 100 % of control

COc1ccc(OC)c(NC(=O)Oc2cc(C)c(Cl)c(C)c2)c1
inactive: [1] 93 % of control | [2] 96 % of control | [3] 101 % of control

CCCCN(CCCC)c1ccc([N+](=O)[O-])c2no[n+]([O-])c12
inactive: dose: 15.0 mg/kg/injection, schedule: Q04DX003 (ip), vehicle: saline with Tween-80 100 % of control | dose: 30.0 mg/kg/injection, schedule: Q04DX003 (ip), vehicle: saline with Tween-80 100 % of control | dose: 60.0 mg/kg/injection, schedule: Q04DX003 (ip), vehicle: saline with Tween-80 100 % of control

CC(COS(C)(=O)=O)(COS(C)(=O)=O)Cc1ccccc1
inactive: [4] 103 % of control | [5] 95 % of control | [6] 93 % of control

CCOC(=O)c1nn2c(C)nnc2s1
inactive: dose: 100.0 mg/kg/injection, schedule: Q01DX001 (ip), vehicle: carboxymethylcellulose (CMC) 98 % of control | dose: 200.0 mg/kg/injection, schedule: Q01DX001 (ip), vehicle: carboxymethylcellulose (CMC) 96 % of control | dose: 400.0 mg/kg/injection, schedule: Q01DX001 (ip), vehicle: carboxymethylcellulose (CMC) 98 % of control

c1ccc(C2=NCC3(CCCC3)N=C2c2ccccc2)cc1
inactive: dose: 100.0 mg/kg/injection, schedule: Q01DX009 (ip), vehicle: saline 101 % of control | [7] 97 % of control | dose: 200.0 mg/kg/injection, schedule: Q01DX009 (ip), vehicle: saline 91 % of control | [8] 90 % of control | dose: 400.0 mg/kg/injection, schedule: Q01DX009 (ip), vehicle: saline 100 % of control | [9] 92 % of control

CC1(C)N=C(N)N=C(N)N1c1ccc(CCCCc2ccc(Cl)c(S(=O)(=O)F)c2)c(Cl)c1
inactive: dose: 12.5 mg/kg/injection, schedule: Q01DX009 (ip), vehicle: saline sonified 93 % of control | dose: 12.5 mg/kg/injection, schedule: Q04DX003 (ip), vehicle: saline sonified 96 % of control | dose: 25.0 mg/kg/injection, schedule: Q01DX009 (ip), vehicle: saline sonified 94 % of control | dose: 25.0 mg/kg/injection, schedule: Q04DX003 (ip), vehicle: saline sonified 93 % of control | dose: 50.0 mg/kg/injection, schedule: Q01DX009 (ip), vehicle: saline sonified 98 % of control | dose: 50.0 mg/kg/injection, schedule: Q04DX003 (ip), vehicle: saline sonified 93 % of control

CCOC(=O)c1c[nH]c2cc([N+](=O)[O-])ccc2c1=O
inactive: dose: 25.0 mg/kg/injection, schedule: Q04DX003 (ip), vehicle: saline with Tween-80 91 % of control | dose: 50.0 mg/kg/injection, schedule: Q04DX003 (ip), vehicle: saline with Tween-80 86 % of control

Nc1ncnc(N)c1NC(=O)c1cc(Cl)c(OCc2ccccc2)c(Cl)c1
inactive: dose: 100.0 mg/kg/injection, schedule: Q01DX001 (ip), vehicle: saline with Tween-80 91 % of control | dose: 200.0 mg/kg/injection, schedule: Q01DX001 (ip), vehicle: saline with Tween-80 96 % of control | dose: 400.0 mg/kg/injection, schedule: Q01DX001 (ip), vehicle: saline with Tween-80 96 % of control

COc1cc(N(CCC#N)CCC#N)nc(OC)n1
inactive: dose: 50.0 mg/kg/injection, schedule: Q01DX009 (ip), vehicle: saline with Tween-80 96 % of control | dose: 100.0 mg/kg/injection, schedule: Q01DX009 (ip), vehicle: saline with Tween-80 92 % of control | dose: 200.0 mg/kg/injection, schedule: Q01DX009 (ip), vehicle: saline with Tween-80 92 % of control

O=C(N/N=C/c1cc([N+](=O)[O-])ccc1O)c1cccc2ccccc12
inactive: [10] 90 % of control | [11] 90 % of control | [12] 92 % of control

COc1ccc(O)c(Br)c1
inactive: dose: 100.0 mg/kg/injection, schedule: Q01DX009 (ip), vehicle: other 97 % of control | dose: 100.0 mg/kg/injection, schedule: Q04DX003 (ip), vehicle: other 94 % of control | dose: 200.0 mg/kg/injection, schedule: Q01DX009 (ip), vehicle: other 103 % of control | dose: 200.0 mg/kg/injection, schedule: Q04DX003 (ip), vehicle: other 96 % of control | dose: 400.0 mg/kg/injection, schedule: Q04DX003 (ip), vehicle: other 92 % of control

Cc1cccc(Cl)c1NC(=O)Nc1cc(Cl)ccc1O
inactive: [4] 107 % of control | [5] 93 % of control | [6] 100 % of control

CC(C)(COC(=O)c1ccccc1)COC(=O)c1ccccc1
inactive: [4] 116 % of control | [13] 96 % of control | [5] 93 % of control | [14] 107 % of control | [6] 93 % of control | dose: 400.0 mg/kg/injection, schedule: Q04DX003 (ip), vehicle: Klucel (hydroxypropylcellulose) (HPC) 98 % of control

CCCCC(=O)c1cc2ccccc2c2ccccc12
inactive: [10] 94 % of control | [11] 88 % of control | [12] 98 % of control

O=C(O)Cc1ccc(Cl)cc1Cl
inactive: dose: 50.0 mg/kg/injection, schedule: Q04DX003 (ip), vehicle: Klucel (hydroxypropylcellulose) (HPC) 93 % of control | [13] 98 % of control | [14] 98 % of control

CC(C)(C)N1OC2(CCCCC2)n2c(=O)c3ccccc3c(=O)n2C1c1ccccc1 (centres undefined)
inactive: [1] 97 % of control | [2] 90 % of control | [3] 108 % of control

Cc1nc2n[nH]c(N)c2nc1C
inactive: [7] 98 % of control | [8] 91 % of control | [9] 88 % of control

Nc1nc(N)c(N=Nc2ccc(SCC(=O)O)cc2)c(=O)[nH]1
inactive: [10] 93 % of control | [11] 98 % of control | [12] 96 % of control
